Test results taken from patent US9296734B2 (AMGEN INC., priority 2013, dated 2016).
pIC50: −log10 of the molar value. Read-outs that look alike come from different tables or passages of the source.

Legend:
[1] = molecular target: Beta Secretase enzyme (BACE) (Homo sapiens (Human), UniProt P56817); assay: In vitro enzymatic BACE FRET assay; type: biochemical; conditions: read-out: BACE 1 FRET assay IC50
Method: In Vitro Enzymatic BACE FRET (Fluorescence Resonance Energy Transfer) Assay (Enzyme Assay Data in the Example Table I)
The assay buffer used in this screen is 0.05 M acetate, pH 4.2, 10% DMSO final, 100 uM genapol (which is a nonionic detergent, below its Critical Micelle Concentration). […] This assay is effectively started by the addition of FRET substrate (50 nM) and the combination is incubated for one hour. The FRET assay is terminated with by addition of Tris buffer, which raises the pH to neutrality, and the fluorescence is determined. The FRET substrate is a peptide with commercially available fluorophore and quencher, on opposite sides of the BACE cleavage site.

[2] = system: Aβ40 in conditioned medium of cells stably expressing Amyloid Precursor Protein (APP); assay: In vitro BACE cell-based assay (Aβ40 sandwich ELISA); conditions: Homo sapiens
Method: In Vitro BACE Cell-Based Assay
The cell-based assay measures inhibition or reduction of Aβ40 in conditioned medium of test compound treated cells expressing amyloid precursor protein.
Cells stably expressing Amyloid Precursor Protein (APP) were plated at a density of 40K cells/well in 96 well plates (Costar). The cells were cultivated for 24 hours at 37° C. and 5% CO2 in DMEM supplemented with 10% FBS. The test compounds were then added to cells in 10-point dose response concentrations with the starting concentration being either 100 μM or 10 μM. The compounds were diluted from stock solutions in DMSO and the final DMSO concentration of the test compounds on cells was 0.1%. After 24 h of incubation with the test compounds the supernatant conditioned media was collected and the Aβ 40 levels were determined using a sandwich ELISA. The IC50 of the compound was calculated from the percent of control or percent inhibition of Aβ 40 as a function of the concentration of the test compound.
The sandwich ELISA to detect Aβ 40 was performed in 96 well microtiter plates, which were pre-treated with goat anti-rabbit IgG (Pierce). The capture and detecting antibody pair that were used to detect Aβ 40 from cell supernatants were affinity purified pAb40 (Biosource) and biotinylated 6E10 (Signet Labs Inc.), respectively. The optimal concentration for the pAb40 antibody was 3 μg/ml in Superblock/TBS (Pierce) that was supplemented with 0.05% Tween 20 (Sigma).
Cellular supernatants were incubated with the capture antibody for 3 h at 4° C., followed by 3 wash steps in TBS-tween (0.05%). The detecting antibody incubation was for 2 h at 4° C., again followed by the wash steps as described previously. The final readout of the ELISA is Time-Resolved Fluorescence (counts per minute) using Delfia reagents Streptavidin-Europium and Enhancement solutions (Perkin Elmer) and the Victor 2 multilabel counter (Perkin Elmer).

[3] = molecular target: Cathepsin D (Cat D) (Homo sapiens (Human), UniProt P07339); assay: In vitro enzymatic Cathepsin D (Cat D) FRET assay; type: biochemical; conditions: read-out: CatD IC50
Cathepsin D (Cat D), sequence (P07339 65-412, species assumed): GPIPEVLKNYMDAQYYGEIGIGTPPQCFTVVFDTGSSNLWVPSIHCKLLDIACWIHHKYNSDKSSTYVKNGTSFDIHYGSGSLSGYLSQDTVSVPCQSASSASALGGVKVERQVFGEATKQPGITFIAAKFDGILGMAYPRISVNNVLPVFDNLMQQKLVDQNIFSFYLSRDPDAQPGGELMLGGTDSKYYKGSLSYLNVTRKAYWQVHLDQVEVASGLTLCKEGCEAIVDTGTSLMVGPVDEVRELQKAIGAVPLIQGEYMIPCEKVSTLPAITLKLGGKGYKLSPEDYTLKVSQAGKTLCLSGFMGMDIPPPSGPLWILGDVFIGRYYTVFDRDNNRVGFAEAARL
Method in brief: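 CHO-expressed recombinant Cat D cleaves a fluorophore/quencher FRET peptide (20 nM) in 0.05 M citrate pH 3.5, 5 mM CHAPS, 10% DMSO final, over 1 h. Tris addition neutralizes pH to stop the reaction; fluorescence read at excitation 500 nm, emission 580 nm.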

[4] = average IC50, BACE enzyme assay
[5] = HEK293, average IC50, HEK cell assay, read-out: HEK cell assay IC50
[6] = average IC50, cathepsin D enzyme assay
[7] = HEK293, average IC50, HEK cells, read-out: HEK cell assay IC50

Beta Secretase enzyme (BACE), sequence (P56817 46-501): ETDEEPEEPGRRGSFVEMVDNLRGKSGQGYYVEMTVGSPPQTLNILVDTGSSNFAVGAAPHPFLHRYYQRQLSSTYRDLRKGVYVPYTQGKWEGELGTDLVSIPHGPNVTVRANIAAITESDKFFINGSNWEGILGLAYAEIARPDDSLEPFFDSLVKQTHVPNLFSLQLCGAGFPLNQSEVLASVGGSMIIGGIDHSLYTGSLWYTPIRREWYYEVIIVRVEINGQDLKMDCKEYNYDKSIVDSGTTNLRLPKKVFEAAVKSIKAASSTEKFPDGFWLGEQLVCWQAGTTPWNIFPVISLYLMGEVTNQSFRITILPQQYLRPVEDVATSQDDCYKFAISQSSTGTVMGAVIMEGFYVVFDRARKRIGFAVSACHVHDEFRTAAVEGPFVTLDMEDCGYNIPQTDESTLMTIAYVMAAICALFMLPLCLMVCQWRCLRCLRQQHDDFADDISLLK

Row | pIC50 [1, 4] | pIC50 [2, 5] | pIC50 [3, 6] | pIC50 ([1]; average IC50) | pIC50 [2, 7] | pIC50 ([3]; average IC50) | Structure (SMILES) | pIC50 ([2]; HEK293, read-out: HEK cell assay IC50)
1 | 7.59 | 7.29 | < 3.40 |  |  |  | Cc1cc(OC(F)F)cnc1C(=O)Nc1ccc(F)c([C@]2(CF)C[C@@H](C(F)(F)F)OC(N)=N2)c1 [Example 42, N-(3-((4S,6S)-2-amino-4-(fluoromethyl)-6-(trifluoromethyl)-5,6-dihydro-4H-1,3-oxazin-4-yl)-4-fluorophenyl)-5-(difluoromethoxy)-3-methylpicolinamide] | 
2 |  |  |  | 7.38 | 7.49 | < 3.40 | COc1cc(C#N)cnc1C(=O)Nc1ccc(F)c([C@]2(CF)C[C@@H](C(F)(F)F)OC(N)=N2)c1 [Example 48, N-(3-((4S,6S)-2-amino-4-(fluoromethyl)-6-(trifluoromethyl)-5,6-dihydro-4H-1,3-oxazin-4-yl)-4-fluorophenyl)-5-cyano-3-methoxypicolinamide] | 
3 | 7.48 | 5.63 | < 3.88 |  |  |  | NC1=N[C@](CF)(c2cc(Nc3ncc(F)c4cc(C#CC5CC5)cnc34)ccc2F)C[C@@H](C(F)(F)F)O1 [Example 54, (4S,6S)-4-(5-((3-(cyclopropylethynyl)-5-fluoro-1,7-naphthyridin-8-yl)amino)-2-fluorophenyl)-4-(fluoromethyl)-6-(trifluoromethyl)-5,6-dihydro-4H-1,3-oxazin-2-amine] | 
4 | 7.01 | 5.99 | < 3.40 |  |  |  | NC1=N[C@](CF)(c2cc(Nc3nccc4cc(C#CC5CC5)cnc34)ccc2F)C[C@@H](C(F)(F)F)O1 [Example 55, (4S,6S)-4-(5-((3-(cyclopropylethynyl)-1,7-naphthyridin-8-yl)amino)-2-fluorophenyl)-4-(fluoromethyl)-6-(trifluoromethyl)-5,6-dihydro-4H-1,3-oxazin-2-amine] | 
5 |  |  |  | 7.26 | 7.41 | < 3.40 | Cc1cc(Cl)cnc1C(=O)Nc1cnc(F)c([C@]2(C)C[C@@H](C(F)(F)F)OC(N)=N2)c1 [Example 61, N-(5-((4S,6S)-2-amino-4-methyl-6-(trifluoromethyl)-5,6-dihydro-4H-1,3-oxazin-4-yl)-6-fluoropyridin-3-yl)-5-chloro-3-methylpicolinamide] | 
6 |  |  |  | 7.06 | 7.42 | < 3.40 | C[C@@]1(c2cc(Nc3ncnc4cc(Cl)cnc34)cnc2F)C[C@@H](C(F)(F)F)OC(N)=N1 [Example 74, (4S,6S)-4-(5-((7-chloropyrido[3,2-d]pyrimidin-4-yl)amino)-2-fluoropyridin-3-yl)-4-methyl-6-(trifluoromethyl)-5,6-dihydro-4H-1,3-oxazin-2-amine] | 

The remaining lines, values behind:

Row | Structure (SMILES) | pIC50 [1, 4] | pIC50 [2, 5] | pIC50 [3, 6] | pIC50 ([1]; average IC50) | pIC50 [2, 7] | pIC50 ([3]; average IC50) | pIC50 ([2]; HEK293, read-out: HEK cell assay IC50)
7 | CC#CCOc1cnc(C(=O)Nc2ccc(F)c([C@]3(CF)C[C@@H](C(F)(F)F)OC(N)=N3)c2)cn1 [Example 39, N-(3-((4S,6S)-2-amino-4-(fluoromethyl)-6-(trifluoromethyl)-5,6-dihydro-4H-1,3-oxazin-4-yl)-4-fluorophenyl)-5-(but-2-yn-1-yloxy)pyrazine-2-carboxamide] | 9.15 | 8.49 | < 3.40 |  |  |  | 
8 | NC1=N[C@](CF)(c2cc(NC(=O)c3ncc(C(F)F)cc3Cl)ccc2F)C[C@@H](C(F)(F)F)O1 [Example 40, N-(3-((4S,6S)-2-amino-4-(fluoromethyl)-6-(trifluoromethyl)-5,6-dihydro-4H-1,3-oxazin-4-yl)-4-fluorophenyl)-3-chloro-5-(difluoromethyl)picolinamide] | 6.89 | 6.98 | < 3.40 |  |  |  | 
9 | NC1=N[C@](CF)(c2cc(NC(=O)c3ccc(C(F)F)cn3)ccc2F)C[C@@H](C(F)(F)F)O1 [Example 41, N-(3-((4S,6S)-2-amino-4-(fluoromethyl)-6-(trifluoromethyl)-5,6-dihydro-4H-1,3-oxazin-4-yl)-4-fluorophenyl)-5-(difluoromethyl)picolinamide] | 7.14 | 7.06 | < 3.40 |  |  |  | 
10 | COc1cc(Cl)cnc1C(=O)Nc1ccc(F)c([C@]2(CF)C[C@@H](C(F)(F)F)OC(N)=N2)c1 [Example 47] |  |  |  | 7.25 | 7.17 | < 3.40 | 
11 | NC1=N[C@](CF)(c2cc(NC(=O)c3ccc(C#CC4CC4)cn3)ccc2F)C[C@@H](C(F)(F)F)O1 [Example 53, N-(3-((4S,6S)-2-amino-4-(fluoromethyl)-6-(trifluoromethyl)-5,6-dihydro-4H-1,3-oxazin-4-yl)-4-fluorophenyl)-5-(cyclopropylethynyl)picolinamid] | 7.64 | 6.71 | 2.52 |  |  |  | 
12 | NC1=N[C@](CF)(c2cc(NC(=O)c3ccc(F)cn3)ccc2F)C[C@@H](C(F)(F)F)O1 [Example 57, N-(3-((4S,6S)-2-amino-4-(fluoromethyl)-6-(trifluoromethyl)-5,6-dihydro-4H-1,3-oxazin-4-yl)-4-fluorophenyl)-5-fluoropicolinamide] |  |  |  | 7.14 | 6.97 | 2.39 | 
13 | C[C@@]1(c2cc(NC(=O)c3ccc(F)cn3)cnc2F)C[C@@H](C(F)(F)F)OC(N)=N1 [Example 64, N-(5-((4S,6S)-2-amino-4-methyl-6-(trifluoromethyl)-5,6-dihydro-4H-1,3-oxazin-4-yl)-6-fluoropyridin-3-yl)-5-fluoropicolinamide] | 6.69 | 7.42 | < 3.40 |  |  |  | 
14 | C[C@@]1(c2cc(NC(=O)c3ccc(OCC(F)(F)F)cn3)cnc2F)C[C@@H](C(F)(F)F)OC(N)=N1 [Example 65, N-(5-((4S,6S)-2-amino-4-methyl-6-(trifluoromethyl)-5,6-dihydro-4H-1,3-oxazin-4-yl)-6-fluoropyridin-3-yl)-5-(2,2,2-trifluoroethoxy)picolinamide] | 7.10 | 6.91 | 3.82 |  |  |  | 
15 | C[C@@]1(c2cc(NC(=O)c3ncc(C#N)cc3Cl)cnc2F)C[C@@H](C(F)(F)F)OC(N)=N1 [Example 66, N-(5-((4S,6S)-2-amino-4-methyl-6-(trifluoromethyl)-5,6-dihydro-4H-1,3-oxazin-4-yl)-6-fluoropyridin-3-yl)-3-chloro-5-cyanopicolinamide] |  |  |  | 7.22 |  | < 3.40 | 7.45
16 | Cc1cc(C#N)cnc1C(=O)Nc1cnc(F)c([C@]2(C)C[C@@H](C(F)(F)F)OC(N)=N2)c1 [Example 67, N-(5-((4S,6S)-2-amino-4-methyl-6-(trifluoromethyl)-5,6-dihydro-4H-1,3-oxazin-4-yl)-6-fluoropyridin-3-yl)-5-cyano-3-methylpicolinamide] |  |  |  | 7.46 | 7.64 | < 3.40 | 
17 | C[C@@]1(c2cc(NC(=O)c3ncc(Cl)cc3Cl)cnc2F)C[C@@H](C(F)(F)F)OC(N)=N1 [Example 68, N-(5-((4S,6S)-2-amino-4-methyl-6-(trifluoromethyl)-5,6-dihydro-4H-1,3-oxazin-4-yl)-6-fluoropyridin-3-yl)-3,5-dichloropicolinamide] |  |  |  | 7.12 | 6.95 | < 3.40 | 
18 | CC(C)n1cc(Cl)c(C(=O)Nc2cnc(F)c([C@]3(C)C[C@@H](C(F)(F)F)OC(N)=N3)c2)n1 [Example 71, N-(5-((4S,6S)-2-amino-4-methyl-6-(trifluoromethyl)-5,6-dihydro-4H-1,3-oxazin-4-yl)-6-fluoropyridin-3-yl)-4-chloro-1-isopropyl-1H-pyrazole-3-carboxamide] | 4.41 | 5.29 | < 3.40 |  |  |  | 
19 | C[C@@]1(c2cc(NC(=O)c3nn(C(F)F)cc3Cl)cnc2F)C[C@@H](C(F)(F)F)OC(N)=N1 [Example 72, N-(5-((4S,6S)-2-amino-4-methyl-6-(trifluoromethyl)-5,6-dihydro-4H-1,3-oxazin-4-yl)-6-fluoropyridin-3-yl)-4-chloro-1-(difluoromethyl)-1H-pyrazole-3-carboxamide] | 7.62 | 7.51 | 3.07 |  |  |  | 
